Test results: ChEMBL document CHEMBL1201862, “PubChem BioAssay data set” (2004)
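How tested: cells in 96-well plates exposed to compound for 48 hours at five concentrations. At the GI50, growth is halved.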 Activity calls are given as the source filed them. No stated cut-off is given here; in the data, active = GI50 up to about 1.1 µM and inactive = higher.

What was measured:
Test in all cases: inhibition of tumour cell growth, NCI panel, 48 h
SNB-19 = system: SNB-19
OVCAR-8 = system: OVCAR-8
MCF7 = system: MCF7
HCT-116 = system: HCT-116
Malme-3M = system: Malme-3M
HOP-92 = system: HOP-92
A549 = system: A549
UO-31 = system: UO-31
NCI-H23 = system: NCI-H23
M14 = system: M14
SN12C = system: SN12C
KM12 = system: KM12
MDA-N = system: MDA-N
HCC 2998 = system: HCC 2998
COLO 205 = system: COLO 205
NCI-H226 = system: NCI-H226
NCI-H460 = system: NCI-H460
HT-29 = system: HT-29
SF-268 = system: SF-268
CAKI-1 = system: CAKI-1

| Structure (SMILES) | GI50 (SNB-19) | GI50 (OVCAR-8) | GI50 (MCF7) | GI50 (HCT-116) | GI50 (Malme-3M) | GI50 (HOP-92) | GI50 (A549) | GI50 (UO-31) | GI50 (NCI-H23) | GI50 (M14) | GI50 (SN12C) | GI50 (KM12) | GI50 (MDA-N) | GI50 (HCC 2998) | GI50 (COLO 205) | GI50 (NCI-H226) | GI50 (NCI-H460) | GI50 (HT-29) | GI50 (SF-268) | GI50 (CAKI-1) |
| --- | --- | --- | --- | --- | --- | --- | --- | --- | --- | --- | --- | --- | --- | --- | --- | --- | --- | --- | --- | --- |
| CC(=O)NNc1nc(C)c(C(/C=C/c2ccccc2O)=N/NC(=O)c2ccncc2)s1 | > 100 µM (inactive) | > 100 µM (inactive) | > 100 µM (inactive) | > 100 µM (inactive) | > 100 µM (inactive) | > 100 µM (inactive) | > 100 µM (inactive) | > 100 µM (inactive) | > 100 µM (inactive) | > 100 µM (inactive) | > 100 µM (inactive) | > 100 µM (inactive) | > 100 µM (inactive) | > 100 µM (inactive) | > 100 µM (inactive) | > 100 µM (inactive) | > 100 µM (inactive) | > 100 µM (inactive) | > 100 µM (inactive) | > 100 µM (inactive) |
| C=CC1C(OC2OC(CO)C(O)C(O)C2O)OC=C(C(=O)OC)C1CC1CC(=O)CC(CCc2ccc(O)cc2)O1 (stereo not given) | > 100 µM (inactive) | > 100 µM (inactive) | > 100 µM (inactive) | > 100 µM (inactive) | > 100 µM (inactive) | > 100 µM (inactive) | > 100 µM (inactive) | > 100 µM (inactive) | > 100 µM (inactive) | > 100 µM (inactive) | > 100 µM (inactive) | > 100 µM (inactive) | > 100 µM (inactive) | > 100 µM (inactive) | > 100 µM (inactive) | > 100 µM (inactive) | > 100 µM (inactive) | > 100 µM (inactive) | > 100 µM (inactive) | > 100 µM (inactive) |
| O=c1[nH]c2cc(Cl)ccc2nc1/C(=N/Nc1ccccc1)C(O)c1ccco1 (stereo not given) | > 100 µM (inactive) | > 100 µM (inactive) | > 100 µM (inactive) | > 100 µM (inactive) | > 100 µM (inactive) | > 100 µM (inactive) | > 100 µM (inactive) | > 100 µM (inactive) | > 100 µM (inactive) | > 100 µM (inactive) | > 100 µM (inactive) | > 100 µM (inactive) | > 100 µM (inactive) | > 100 µM (inactive) | > 100 µM (inactive) | > 100 µM (inactive) | > 100 µM (inactive) | > 100 µM (inactive) | > 100 µM (inactive) | > 100 µM (inactive) |
| C[n+]1cn(C2=C([N-]S(=O)(=O)c3ccccc3)C(=O)c3ccccc3C2=O)c2ccccc21 | 19.3 µM (inactive) | 20 µM (inactive) | 22.1 µM (inactive) | 22.9 µM (inactive) | 1.55 µM (inactive) | 42.1 µM (inactive) | 85.9 µM (inactive) | > 100 µM (inactive) | 16 µM (inactive) | 16.5 µM (inactive) | 31.3 µM (inactive) | 15.9 µM (inactive) | 12.8 µM (inactive) | 18.9 µM (inactive) | 2.85 µM (inactive) | 56.4 µM (inactive) | 16.8 µM (inactive) | 6.67 µM (inactive) | 31.6 µM (inactive) | > 100 µM (inactive) |
| CC1(C)OCC2OC3(c4nc(C#N)c(N)o4)OC(C)(C)OC3C2O1 (stereo not given) | > 100 µM (inactive) | > 100 µM (inactive) | > 100 µM (inactive) | > 100 µM (inactive) | > 100 µM (inactive) | > 100 µM (inactive) | > 100 µM (inactive) | > 100 µM (inactive) | > 100 µM (inactive) | > 100 µM (inactive) | > 100 µM (inactive) | > 100 µM (inactive) | > 100 µM (inactive) | > 100 µM (inactive) | > 100 µM (inactive) | > 100 µM (inactive) | > 100 µM (inactive) | > 100 µM (inactive) | > 100 µM (inactive) | > 100 µM (inactive) |
| CCOC(=O)C(NNS(=O)(=O)c1ccc(C)cc1)S(=O)(=O)C(F)(F)C(F)(F)C(F)(F)C(F)(F)F (stereo not given) | > 100 µM (inactive) | > 100 µM (inactive) | > 100 µM (inactive) | 64 µM (inactive) | > 100 µM (inactive) | 54.7 µM (inactive) | > 100 µM (inactive) | > 100 µM (inactive) | > 100 µM (inactive) | > 100 µM (inactive) | > 100 µM (inactive) | > 100 µM (inactive) | > 100 µM (inactive) | > 100 µM (inactive) | > 100 µM (inactive) | > 100 µM (inactive) | > 100 µM (inactive) | > 100 µM (inactive) | > 100 µM (inactive) | > 100 µM (inactive) |
| Oc1ccc(Cl)cc1-c1cc(-c2ccccc2)nc(S)n1 | 42.9 µM (inactive) | > 100 µM (inactive) | > 100 µM (inactive) | 28.8 µM (inactive) | > 100 µM (inactive) | 19.2 µM (inactive) | > 100 µM (inactive) | 24 µM (inactive) | 88.5 µM (inactive) | > 100 µM (inactive) | 93.1 µM (inactive) | 92.5 µM (inactive) | > 100 µM (inactive) | > 100 µM (inactive) | > 100 µM (inactive) | > 100 µM (inactive) | > 100 µM (inactive) | > 100 µM (inactive) | 27.3 µM (inactive) | > 100 µM (inactive) |
| C[C@H]1CC[C@]2(NC1)O[C@H]1C[C@H]3[C@@H]4CC[C@H]5C[C@@H](O[C@@H]6O[C@H](CO)[C@H](O[C@@H]7O[C@H](CO)[C@@H](O)[C@H](O[C@@H]8OC[C@@H](O)[C@H](O)[C@H]8O)[C@H]7O[C@@H]7O[C@H](CO)[C@@H](O)[C@H](O)[C@H]7O)[C@H](O)[C@H]6O)CC[C@]5(C)[C@H]4CC[C@]3(C)[C@H]1[C@@H]2C [TOMATINE] | 1.24 µM (inactive) | 2.24 µM (inactive) | 2.32 µM (inactive) | 1.7 µM (inactive) | 0.605 µM (active) | 1.99 µM (inactive) | 1.55 µM (inactive) | 1.42 µM (inactive) | 1.65 µM (inactive) | 1.43 µM (inactive) | 1.43 µM (inactive) | 1.98 µM (inactive) | 0.558 µM (active) | 0.993 µM (active) | 2 µM (inactive) | 1.95 µM (inactive) | 2.18 µM (inactive) | 1.91 µM (inactive) | 1.55 µM (inactive) | 0.753 µM (active) |
